Data on 7 molecules can be found in PubChem BioAssay AID1745844 (Carcinogenic Potency Database (CPDB), 2022).

By TD50 is commonly meant the 50% point of the dose-response relation for the toxic effect studied.

The series relates to rodent lifetime carcinogenesis bioassay, tumor incidence TD50. Kind of series: carcinogenic potency in animals, long-term in vivo studies, CPDB compilation (AID 1745844).
Setting [1] is: mouse, strain B6AKF1, females, oral dosing, site: any site (literature study), lesion: several types, types named in the paper, dosed 76 weeks, study length 76 weeks.
The mark [2] stands for this setting: mouse, strain B6AKF1, females, oral dosing, site: lung, lesion: adenoma, dosed 76 weeks, study length 76 weeks.
The mark [3] stands for this setting: mouse, strain B6AKF1, males, oral dosing, site: lung, lesion: adenoma, dosed 76 weeks, study length 76 weeks.
Setting [4] is: mouse, strain B6C3F1, males, oral dosing, site: any site (literature study), lesion: several types, types named in the paper, dosed 76 weeks, study length 76 weeks.

SMILES strings stand for the structures. Active and inactive are the calls of the source. No rule for the calls is given here.

With `CN(C)CCOc1ccc(/C(=C(/CCCl)c2ccccc2)c2ccccc2)cc1`, the carcinogen call by setting is: (rat, strain Charles River CD (Sprague-Dawley), females, by gavage, site: liver, lesion: hepatocellular adenoma, dosed 52 weeks, study length 52 weeks) “negative (inactive)”; (rat, strain Charles River CD (Sprague-Dawley), females, by gavage, site: liver, lesion: hepatocellular adenoma, dosed 52 weeks, study length 65 weeks) “negative (inactive)”; (rat, strain Charles River CD (Sprague-Dawley), females, by gavage, site: liver, lesion: hepatocellular carcinoma, dosed 52 weeks, study length 52 weeks) “negative (inactive)”; (rat, strain Charles River CD (Sprague-Dawley), females, by gavage, site: liver, lesion: hepatocellular carcinoma, dosed 52 weeks, study length 65 weeks) “negative (inactive)”; (rat, strain Sprague-Dawley, females, by gavage, site: liver, lesion: one or several types, types not named, dosed 52 weeks, study length 52 weeks) “negative (inactive)”; (rat, strain Sprague-Dawley, females, by gavage, site: liver, lesion: one or several types, types not named, dosed 52 weeks, study length 65 weeks) “negative (inactive)”. The carcinogen call reads like this: (rat, strain Sprague-Dawley, females, by gavage, site: liver, lesion: several types, types named in the paper, dosed 52 weeks, study length 52 weeks) “negative (inactive)”; (rat, strain Sprague-Dawley, females, by gavage, site: liver, lesion: several types, types named in the paper, dosed 52 weeks, study length 65 weeks) “negative (inactive)”; (rat, strain Sprague-Dawley, females, in feed, site: liver, lesion: hepatocellular carcinoma, dosed 104 weeks, study length 104 weeks) “negative (inactive)”; (rat, strain Sprague-Dawley, females, in feed, site: mammary gland, lesion: one or several types, types not named, dosed 104 weeks, study length 104 weeks) “negative (inactive)”; (rat, strain Sprague-Dawley, females, in feed, site: pituitary gland, lesion: one or several types, types not named, dosed 104 weeks, study length 104 weeks) “negative (inactive)”; (rat, strain Sprague-Dawley, males, in feed, site: liver, lesion: hepatocellular adenoma, dosed 104 weeks, study length 104 weeks) “negative (inactive)”. Further, the carcinogen call was “negative (inactive)” (rat, strain Sprague-Dawley, males, in feed, site: mammary gland, lesion: one or several types, types not named, dosed 104 weeks, study length 104 weeks); “negative (inactive)” (rat, strain Sprague-Dawley, males, in feed, site: pituitary gland, lesion: one or several types, types not named, dosed 104 weeks, study length 104 weeks); “negative (inactive)” (rat, strain Sprague-Dawley, males, in feed, site: testis, lesion: one or several types, types not named, dosed 104 weeks, study length 104 weeks). The TD50 is 344 mg/kg/day (inactive) (rat, strain Sprague-Dawley, females, in feed, site: liver, lesion: hepatocellular adenoma, dosed 104 weeks, study length 104 weeks) and 1040 mg/kg/day (inactive) (rat, strain Sprague-Dawley, males, in feed, site: liver, lesion: hepatocellular carcinoma, dosed 104 weeks, study length 104 weeks).

`[K+]`: the TD50 by setting is: (rat, strain F344/DuCrj, females, in drinking water, site: submandibular salivary gland, lesion: squamous-cell carcinoma, dosed 104 weeks, study length 104 weeks) 560 mg/kg/day; (rat, strain F344/DuCrj, females, in drinking water, site: uterus, lesion: endometrial stromal polyp, dosed 104 weeks, study length 104 weeks) 204 mg/kg/day (inactive); (rat, strain F344/DuCrj, males, in drinking water, site: submandibular salivary gland, lesion: squamous-cell carcinoma, dosed 104 weeks, study length 104 weeks) 363 mg/kg/day.

With `CC(Oc1cc(Cl)ccc1Cl)C(=O)O` (stereo not given), the carcinogen call was “negative (inactive)” under setting [1]; “negative (inactive)” (mouse, strain B6AKF1, females, oral dosing, site: liver, lesion: hepatoma, dosed 76 weeks, study length 76 weeks); “negative (inactive)” under setting [2]; “negative (inactive)” (mouse, strain B6AKF1, males, oral dosing, site: any site (literature study), lesion: several types, types named in the paper, dosed 76 weeks, study length 76 weeks); “negative (inactive)” (mouse, strain B6AKF1, males, oral dosing, site: liver, lesion: hepatoma, dosed 76 weeks, study length 76 weeks); “negative (inactive)” under setting [3]. Also, the carcinogen call runs as follows: (mouse, strain B6C3F1, females, oral dosing, site: any site (literature study), lesion: one or several types, types not named, dosed 76 weeks, study length 76 weeks) “negative (inactive)”; (mouse, strain B6C3F1, females, oral dosing, site: liver, lesion: hepatoma, dosed 76 weeks, study length 76 weeks) “negative (inactive)”; (mouse, strain B6C3F1, females, oral dosing, site: lung, lesion: several types, types named in the paper, dosed 76 weeks, study length 76 weeks) “negative (inactive)”. Besides, the TD50 was 10.5 mg/kg/day (inactive) under setting [4]; 36.7 mg/kg/day (inactive) (mouse, strain B6C3F1, males, oral dosing, site: liver, lesion: hepatoma, dosed 76 weeks, study length 76 weeks); 36.7 mg/kg/day (inactive) (mouse, strain B6C3F1, males, oral dosing, site: lung, lesion: adenoma, dosed 76 weeks, study length 76 weeks).

As to `[Cl][Sn][Cl]`, the TD50 is 2550 mg/kg/day (mouse, strain B6C3F1, females, in feed, site: all sites, lesion: lymphoma, histiocytic type, dosed 105 weeks, study length 105 weeks); 386 mg/kg/day (mouse, strain B6C3F1, females, in feed, site: any site (literature study), lesion: several types, types named in the paper, dosed 105 weeks, study length 105 weeks); 1020 mg/kg/day (mouse, strain B6C3F1, females, in feed, site: liver, lesion: hepatocellular adenoma + hepatocellular carcinoma + neoplastic nodule, dosed 105 weeks, study length 105 weeks); 1420 mg/kg/day (mouse, strain B6C3F1, females, in feed, site: liver, lesion: hepatocellular carcinoma, dosed 105 weeks, study length 105 weeks); 1390 mg/kg/day (inactive) (mouse, strain B6C3F1, females, in feed, site: pituitary gland, lesion: adenoma, dosed 105 weeks, study length 105 weeks); 12000 mg/kg/day (inactive) (rat, strain Fischer 344, females, in feed, site: any site (literature study), lesion: several types, types named in the paper, dosed 105 weeks, study length 104 weeks). The TD50 is 676000 mg/kg/day (rat, strain Fischer 344, females, in feed, site: liver, lesion: hepatocellular adenoma + hepatocellular carcinoma + neoplastic nodule, dosed 105 weeks, study length 104 weeks); 180 mg/kg/day (rat, strain Fischer 344, males, in feed, site: any site (literature study), lesion: several types, types named in the paper, dosed 104 weeks, study length 104 weeks); 951 mg/kg/day (rat, strain Fischer 344, males, in feed, site: lung, lesion: alveolar/bronchiolar adenoma, dosed 104 weeks, study length 104 weeks); 87.4 mg/kg/day (inactive) (rat, strain Fischer 344, males, in feed, site: thyroid gland, lesion: c-cell adenoma + c-cell carcinoma, dosed 104 weeks, study length 104 weeks); 405 mg/kg/day (rat, strain Fischer 344, males, in feed, site: thyroid gland, lesion: c-cell carcinoma, dosed 104 weeks, study length 104 weeks). Besides, the carcinogen call reads like this: (mouse, strain B6C3F1, males, in feed, site: any site (literature study), lesion: several types, types named in the paper, dosed 105 weeks, study length 105 weeks) “negative (inactive)”; (mouse, strain Charles River CD1, both sexes, in drinking water, site: any site (literature study), lesion: benign tumor, dosed 104 weeks, study length 104 weeks) “negative (inactive)”; (mouse, strain Charles River CD1, both sexes, in drinking water, site: any site (literature study), lesion: malignant tumor, dosed 104 weeks, study length 104 weeks) “negative (inactive)”; (mouse, strain Charles River CD1, both sexes, in drinking water, site: any site (literature study), lesion: several types, types named in the paper, dosed 104 weeks, study length 104 weeks) “negative (inactive)”; (mouse, strain Charles River CD1, both sexes, in drinking water, site: lung, lesion: adenoma, dosed 104 weeks, study length 104 weeks) “negative (inactive)”; (mouse, strain Charles River CD1, both sexes, in drinking water, site: lung, lesion: several types, types named in the paper, dosed 104 weeks, study length 104 weeks) “negative (inactive)”. Further, the carcinogen call is, setting by setting: (rat, strain Long-Evans BLU:(LE), both sexes, in drinking water, site: any site (literature study), lesion: malignant tumor, dosed 156 weeks, study length 156 weeks) “negative (inactive)”; (rat, strain Long-Evans BLU:(LE), both sexes, in drinking water, site: any site (literature study), lesion: one or several types, types not named, dosed 156 weeks, study length 156 weeks) “negative (inactive)”; (rat, strain Long-Evans BLU:(LE), both sexes, in drinking water, site: liver, lesion: one or several types, types not named, dosed 156 weeks, study length 156 weeks) “negative (inactive)”.

As for `CCCCCCCN`, for the setting “rat, strain Wistar, males, in drinking water, site: any site (literature study), lesion: several types, types named in the paper, dosed 61 weeks, study length 61 weeks”, the carcinogen call was “negative (inactive)”.

In the case of `O=[N+]([O-])c1cc([N+](=O)[O-])c(Cl)c(Cl)c1Cl`, the TD50 was determined as 52.6 mg/kg/day under setting [1], 108 mg/kg/day under setting [2], 49 mg/kg/day under setting [3] and 19.8 mg/kg/day under setting [4].

As for `CCCCCCN(N=O)C(N)=O`, the TD50 is 0.848 mg/kg/day (rat, strain Fischer 344, females, by gavage, site: forestomach, lesion: one or several types, types not named, dosed 50 weeks, study length 104 weeks); 2.06 mg/kg/day (rat, strain Fischer 344, females, by gavage, site: lung, lesion: several types, types named in the paper, dosed 50 weeks, study length 104 weeks); 1.73 mg/kg/day (rat, strain Fischer 344, females, by gavage, site: mammary gland, lesion: adenocarcinoma, dosed 50 weeks, study length 104 weeks); 0.579 mg/kg/day (rat, strain Fischer 344, females, by gavage, site: uterus, lesion: several types, types named in the paper, dosed 50 weeks, study length 104 weeks); 0.745 mg/kg/day (rat, strain Fischer 344, males, by gavage, site: all sites, lesion: mesothelioma, dosed 50 weeks, study length 104 weeks); 2.27 mg/kg/day (rat, strain Fischer 344, males, by gavage, site: colon, lesion: one or several types, types not named, dosed 50 weeks, study length 104 weeks). For the same molecule, the carcinogen call (rat, strain Fischer 344, males, by gavage, site: forestomach, lesion: one or several types, types not named, dosed 50 weeks, study length 104 weeks) was “positive” and the carcinogen call (rat, strain Fischer 344, males, by gavage, site: lung, lesion: several types, types named in the paper, dosed 50 weeks, study length 104 weeks) was “positive”.
